According to patent US4820867A, “Phenoxypropoxy halophenylacetic acids as leukotriene antagonists” (Merck Frosst Canada, Inc., priority 1986, dated 1989):

Test system: leukotriene D4 induced bronchoconstriction
Experiment: inhibition of leukotriene D4 induced bronchoconstriction in anaesthetized guinea pigs (modified Konzett-Rossler)
Format: in vivo, guinea pig
Set-up: % Inhibition After 30 Min.: concentration or dose not given beside the values
Details: for ED50: Cavia porcellus, 10 min, directly into the duodenum, dose producing 50% inhibition when given 10 minutes before LTD4, read-out: ED50 (median effective dose), inhibition of LTD4 induced bronchoconstriction; for % Inhibition After 30 Min.: inhibition of LTD4 induced bronchoconstriction, intraduodenal, 30 min after antagonist administration
Method: The antagonist activity of the compounds of the present invention was determined by measuring their ability to inhibit leukotriene D4 induced bronchoconstriction in anaesthetized guinea pigs (modified Konzett-Rossler). When administrated directly into the duodenum (oral activity) they are active at 2.5-5 mg/kg. Oral activity is defined as the dose producing 50% inhibition when given 10 minutes before LTD4. Percent inhibition was determined at 10 minutes and also at 30 and 50 minutes after antagonist administration. The time interval between LTD4 administration was kept constant at 20 minutes in all experiments.
Table I is a comparison between three known leukotriene antagonists (entries 1, 2 and 3, see: G.B. Pat. No. 2,058,785, supra) and several compounds of the present invention (4-9).

SMILES	ED50 [mg/kg]	% Inhibition After 30 Min. [%]
CCCc1c(OCCCOc2ccc(C(=O)O)cc2)ccc(C(C)=O)c1O [Entry 1, reference compound]	10	59
CCCc1c(OCCCOc2cccc(CCC(=O)O)c2)ccc(C(C)=O)c1O [Entry 2, reference compound]	10	32
CCCc1c(OCCCOc2ccc(C=CC(=O)O)cc2)ccc(C(C)=O)c1O [Entry 3, reference compound]	20	56
CCCc1c(OCCCOc2ccc(CC(=O)O)cc2F)ccc(C(C)=O)c1O [Entry 4, 4-(3-(4-Acetyl-3-hydroxy-2-propylphenoxy)-propoxy)-3-fluorobenzene acetic acid]	10	100
CCCc1c(OCC(O)COc2ccc(CC(=O)O)cc2F)ccc(C(C)=O)c1O (stereo not drawn) [Entry 5, 4-(3-(4-Acetyl-3-hydroxy-2-propylphenoxy)-2-hydroxypropoxy)-3-fluorobenzeneacetic acid]	2.5	50
CCCc1c(OCC(O)COc2ccc(CC(=O)O)cc2Br)ccc(C(C)=O)c1O (stereo not drawn) [Entry 6, 4-(3-(4-Acetyl-3-hydroxy-2-propylphenoxy)-2-hydroxypropoxy)-3-bromobenzene acetic acid]	2.5	35
CCCc1c(OCC(O)COc2ccc(CC(=O)O)cc2Cl)ccc(C(C)=O)c1O (stereo not drawn) [Entry 7, 4-(3-(4-Acetyl-3-hydroxy-2-propylphenoxy)-2-hydroxypropoxy)-3-chlorobenzeneacetic acid]	10	63
CCCc1c(OCCCOc2ccc(CC(=O)O)cc2Cl)ccc(C(C)=O)c1O [Entry 8, 4-(3-(4-acetyl-3-hydroxy-2-propylphenoxy)propoxy)-3-chlorobenzene acetic]	5	60
CCCc1c(OCCCOc2ccc(CC(=O)O)cc2Br)ccc(C(C)=O)c1O [Entry 9, 4-(3-(4-Acetyl-3-hydroxy-2-propylphenoxy)-propoxy)-3-bromobenzene acetic acid]	10	87
